The test system of experiment [1] is Aspergillus niger ATCC #16404. The experiment is described as follows: Minimum inhibitory concentration by zone of inhibition assay. Particulars: 5 days contact, Day-Engley neutralizing media. Format: cell-based. The source says:
A. niger ATCC #16404 was contacted with each sulfone for 5 days in a Day-Engley neutralizing media.

The test system of experiment [2] is Gloephyllium trabeum (a brown rot, ATCC 11539). Particulars: G. trabeum; for IC50 (ppm): minimum concentration for 50% zone of inhibition, 9 days contact.
Experimental: (§1) Prod J. 45(1):86-9 (1995), was performed to determine the minimum concentration of uracil necessary to achieve a 50% zone of inhibition over 9 days of contact time.
For experiment [3], the system named is Chaetomium globosum (a soft rot, ATCC 6205). Particulars: C. globosum; minimum concentration for 50% zone of inhibition, 9 days contact.
Experimental: as §1
The subject of experiment [4] is Trametes versicolor (a white rot; ATCC 42462). Particulars: T. versicolor; for IC50 (ppm): minimum concentration for 50% zone of inhibition, 9 days contact.
Experimental: as §1
The test system of experiment [5] is Postia placenta (a brown rot, ATCC 11538). Particulars: P. placenta; for IC50 (ppm): minimum concentration for 50% zone of inhibition, 9 days contact.
Experimental: as §1

The structures appear in SMILES notation.

Consider `O=c1c(F)cn(CC#CI)c(=O)n1-c1ccco1` [1N-(3-iodo-2-propynyl)-3N-(2-furanyl)-5-fluorouracil], for which the “5 Day Minimum Inhibitory Concentration Aspergillus niger” value in experiment [1] fell in the range of 30 to 100 mg/L.
Take `O=c1c(Cl)cn(CC#CI)c(=O)n1CC#CI`: in experiment [1], the “5 Day Minimum Inhibitory Concentration Aspergillus niger” value was 10 to 30 mg/L. Moreover, the “concentration at which a total kill was observed” value in experiment [2], in experiment [4] and in experiment [5] was “no more than 50 ppm” throughout. The “IC50 (ppm)” value in experiment [2] is 3.22 ppm; in experiment [3], 3.22 ppm; in experiment [4], 6.12 ppm; in experiment [5] it was <5.0 ppm.
For the compound `O=c1[nH]cc([N+](=O)[O-])c(=O)n1CC#CI` [3N-(3-iodo-2-propynyl)-5-nitrouracil], the “5 Day Minimum Inhibitory Concentration Aspergillus niger” value in experiment [1] was in the range of 30 to 100 mg/L.
In the case of `O=c1ccn(CC#CI)c(=O)n1C1O[C@H](CO)[C@@H](O)[C@H]1O` (stereo partly drawn) [1N-(3-iodo-2-propynyl)-3N-(D-1-ribose)-uracil], the “5 Day Minimum Inhibitory Concentration Aspergillus niger” value in experiment [1] fell in the range of 100 to 300 mg/L.
On to `CCCCCCCCCC[N+](C)(C)CCCCCCCCCC.[Cl-]` [didecydimethyl ammonium chloride, didecyldimethyl ammonium chloride, reference compound], for which the “IC50 (ppm)” value in experiment [2] came out at 6.45 ppm; in experiment [3] it was 62.9 ppm; in experiment [4] it was 53.9 ppm; in experiment [5] it was 5.6 ppm.
As to `O=c1ccn(CC#CI)c(=O)n1CC#CI` [1N, 3N-bis(3-iodo-2-propynyl)-uracil, 1N,3N-Bis(3-iodo-2-propynyl)-uracil], the “5 Day Minimum Inhibitory Concentration Aspergillus niger” value in experiment [1] was in the range of 3 to 10 mg/L.
With `Cc1cn(CC#CI)c(=O)n(CC#CI)c1=O` [1N,3N-Bis(3-iodo-2-propynyl)-5-methyluracil], the “5 Day Minimum Inhibitory Concentration Aspergillus niger” value in experiment [1] was in the range of 10 to 30 mg/L.

The values above are taken from patent US6344460B1, “Propynyl uracils” (Lonza Inc., priority 2000, dated 2002).
